Assay results published in publication PMC9015998, “Non-clinical Pharmacology of YTX-7739: a Clinical Stage Stearoyl-CoA Desaturase Inhibitor Being Developed for Parkinson’s Disease” (Molecular Neurobiology, 2022).

Target: T1, rat SCD (Rattus norvegicus, UniProt P07308)
T1 construct: rat liver microsomes (RLMs) isolated from rats fed a […] to induce SCD expression; from tissue; host or cells: rat liver microsomes (SCD-induced by diet); assay run at PureHoney Technologies
T1 sequence (P07308 1-358): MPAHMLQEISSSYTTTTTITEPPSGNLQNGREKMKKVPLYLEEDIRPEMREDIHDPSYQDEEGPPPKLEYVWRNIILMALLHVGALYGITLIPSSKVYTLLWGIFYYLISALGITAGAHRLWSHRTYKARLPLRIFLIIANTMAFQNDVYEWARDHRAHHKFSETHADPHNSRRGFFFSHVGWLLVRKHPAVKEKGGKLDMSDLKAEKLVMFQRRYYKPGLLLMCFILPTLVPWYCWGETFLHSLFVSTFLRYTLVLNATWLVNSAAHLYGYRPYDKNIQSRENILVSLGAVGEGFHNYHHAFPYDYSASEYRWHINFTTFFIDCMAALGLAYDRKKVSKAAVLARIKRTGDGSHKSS
Test: SCD enzyme assay in SCD-induced rat liver microsomes (RLM)
Type: biochemical
Conditions: C17:0-CoA substrate, Rapid-Fire mass spectrometry
Description: The SCD biochemical assay has been described previously (Vincent et al., 2018). In brief, SCD-induced rat liver microsomes (RLM) were isolated from […] fed a high-carbohydrate, low-fat diet for 5 days. RLM were then used in an optimized biochemical assay using C17:0-CoA as a substrate (Avanti Lipids, #870,717) and Rapid-Fire mass spectrometry to quantify conversion to C17:1-CoA. The RLM assay was performed at PureHoney Technologies (Billerica, MA).
An iterative medicinal chemistry campaign identified YTX-7739 as a SCD inhibitor that reduced conversion of saturated to unsaturated fatty acids (Fig. 1A). The potency of YTX-7739 in inhibiting SCD activity was initially assessed in rat liver microsomes (RLMs) isolated from rats fed a […] to induce SCD expression. RLMs were then used in conjunction with a synthetic C17:0-CoA SCD substrate and rapid-fire mass spectrometry to assess enzyme activity.
Fig. 1 Characterization of in vitro properties of YTX-7739. A SCD reaction converting CoA-linked saturated to monounsaturated fatty acids of 16 (palmitoleic acid) or 18 (oleic acid) carbons in length. […] B YTX-7739 and a reference SCD inhibitor (CAY10566) was tested in a biochemical assay using SCD-induced RLM and C17:0-CoA with Rapid-Fire mass spectrometry as an analytical readout. […] The calculated IC50 values are inset. […]

IC50: 1.1 nM
Structure (SMILES): Cc1nnc(-c2ccc(N3CCC(Oc4cc(F)ccc4Cl)CC3)nn2)o1 [CAY10566]
